Key:
RORγ-LBD = target: T1, RORγ-LBD (Homo sapiens, UniProt P51449); test: RORγ-Ligand Binding Domain (LBD) TR-FRET Assay; assay type: biochemical;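 for TR-FRET Assay Max Response: 665/615 nm ratio relative to signal without ursolic acid or compound set at 100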
T1 construct: made in house; host or cells: SF9 cells (baculovirus)
T1 sequence (P51449 269-508 limits assumed): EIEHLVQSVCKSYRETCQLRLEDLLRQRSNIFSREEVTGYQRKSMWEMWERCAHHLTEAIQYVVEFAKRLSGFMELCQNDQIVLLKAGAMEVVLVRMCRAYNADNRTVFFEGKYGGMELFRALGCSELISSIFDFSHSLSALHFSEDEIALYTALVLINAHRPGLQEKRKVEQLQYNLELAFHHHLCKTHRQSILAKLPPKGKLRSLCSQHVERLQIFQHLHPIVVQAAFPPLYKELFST
How it was run: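 This TR-FRET coactivator assay pairs baculovirus-expressed His-RORγ-LBD (~3 nM final) with biotin-SRC1 LXXLL peptide at 200 nM final in pH 7.0 Tris/KCl/EDTA/DTT/BSA buffer.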

Gal4-RORγ-LBD = target: T2, Gal4-RORγ-LBD (Homo sapiens, UniProt P51449); test: Gal4-RORγ Luciferase Reporter Assay in HEK-293T Cells; assay type: cell-based; conditions: HEK-293 cells
T2 construct: expressed in transfected cells; host or cells: HEK-293 cells (pcDNA3.1neo plasmid)
T2 sequence (P51449 269-508 limits assumed): T1 sequence (P51449 269-508 limits assumed)
How it was run: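 Luminescence read-out (One-Glo, 10 min RT) after overnight compound exposure at 37 °C in HEK-293 cells carrying Gal4-RORγ-LBD plus a Gal4-luciferase reporter, in the presence of 2 μM ursolic acid. Max Response is the upper plateau from a 4-parameter logistic fit, normalized to untreated signal = 100.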

[1] = luciferase reporter, with 2 μM ursolic acid

| SMILES | EC50 (RORγ-LBD) | EC50 (Gal4-RORγ-LBD; [1]) | EC50 (Gal4-RORγ-LBD; 2 μM ursolic acid) | TR-FRET Assay Max Response (RORγ-LBD) | Gal4-RORγ Assay Max Response (Gal4-RORγ-LBD; [1]) | Gal4-RORγ Assay Max Response (Gal4-RORγ-LBD; 2 μM ursolic acid) |
| --- | --- | --- | --- | --- | --- | --- |
| CC(C)(C[C@@H]1CN(S(=O)(=O)c2cccc(C(F)(F)F)c2)c2cc(-c3cc(F)cc(Cl)c3F)ccc2O1)C(=O)O [Compound 32AO, (R)-3-(6-(3-chloro-2,5-difluoro-phenyl)-4-((3-(trifluoromethyl)-phenyl)sulfonyl)-3,4-dihydro-2H-benzo[b][1,4]oxazin-2-yl)-2,2-dimethylpropanoic acid] | < 500 nM | – | 500 to 5000 nM | ** (The symbol “**” indicates a value in the range of greater than 90 to 150) | – | * (The symbol “*” indicates a value in the range of 25 to 90) |
| COc1cccc(-c2ccc3c(c2)N(S(=O)(=O)c2cccc(C(F)(F)F)c2)C[C@H](CCNC(=O)C(C)(C)O)O3)c1 [Compound 30E, (S)-2-hydroxy-N-(2-(6-(3-methoxyphenyl)-4-((3-(trifluoromethyl)phenyl)sulfonyl)-3,4-dihydro-2H-benzo[6][1,4]oxazin-2-yl)ethyl)-2-methylpropanamide] | < 500 nM | < 500 nM | – | **** (The symbol “****” indicates a value greater than 200) | ** (The symbol “**” indicates a value in the range of greater than 90 to 150) | – |
| CC(C)Cn1cc(-c2ccc3c(c2)N(S(=O)(=O)c2cccc(C(F)(F)F)c2)C[C@H](CCC(=O)O)O3)cn1 [Compound 2BH, (S)-3-(6-(1-isobutyl-1H-pyrazol-4-yl)-4-((3-(trifluoromethyl)-phenyl)sulfonyl)-3,4-dihydro-2H-benzo[b][1,4]oxazin-2-yl)propanoic acid] | 500 to 5000 nM | > 10000 nM | – | ** (The symbol “**” indicates a value in the range of greater than 90 to 150) | – | – |

Continued, in another order:

| EC50 (RORγ-LBD) | EC50 (Gal4-RORγ-LBD; [1]) | EC50 (Gal4-RORγ-LBD; 2 μM ursolic acid) | SMILES | TR-FRET Assay Max Response (RORγ-LBD) | Gal4-RORγ Assay Max Response (Gal4-RORγ-LBD; [1]) | Gal4-RORγ Assay Max Response (Gal4-RORγ-LBD; 2 μM ursolic acid) |
| --- | --- | --- | --- | --- | --- | --- |
| < 500 nM | < 500 nM | – | O=C(CO)NC[C@H]1CN(S(=O)(=O)c2cccc(C(F)(F)F)c2)c2cc(-c3cc(F)ccc3F)ccc2O1 [Compound 30BA, (S)-N-((6-(2,5-difluorophenyl)-4-((3-(trifluoromethyl)phenyl)-sulfonyl)-3,4-dihydro-2H-benzo[b][1,4]oxazin-2-yl)methyl)-2-hydroxyacetamide] | *** (The symbol “***” indicates a value in the range of greater than 150 to 200) | ** (The symbol “**” indicates a value in the range of greater than 90 to 150) | – |
| < 500 nM | 500 to 5000 nM | – | O=C(O)CC[C@H]1CN(S(=O)(=O)c2cccc(C(F)(F)F)c2)c2cc(-c3nc(C(F)(F)F)cs3)ccc2O1 [Compound 4G, (S)-3-(4-((3-(trifluoromethyl)phenyl)sulfonyl)-6-(4-(trifluoromethyl)thiazol-2-yl)-3,4-dihydro-2H-benzo[b][1,4]oxazin-2-yl)propanoic acid] | **** (The symbol “****” indicates a value greater than 200) | ** (The symbol “**” indicates a value in the range of greater than 90 to 150) | – |
| < 500 nM | < 500 nM | – | CC(C)n1cc(-c2ccc3c(c2)N(S(=O)(=O)c2cccc(C(F)(F)F)c2)C[C@H](CCC(=O)O)O3)cn1 [Compound 4AC, (S)-3-(6-(1-isopropyl-1H-pyrazol-4-yl)-4-((3-(trifluoromethyl)phenyl)sulfonyl)-3,4-dihydro-2H-benzo[b][1,4]oxazin-2-yl)propanoic acid] | **** (The symbol “****” indicates a value greater than 200) | * (The symbol “*” indicates a value in the range of 25 to 90) | – |
| < 500 nM | < 500 nM | – | CC(=O)NC[C@H]1CN(S(=O)(=O)c2cccc(C(F)(F)F)c2)c2cc(-c3cc(F)ccc3F)ccc2O1 [Compound 30BD, (S)-N-((6-(2,5-difluorophenyl)-4-((3-(trifluoromethyl)phenyl)-sulfonyl)-3,4-dihydro-2H-benzo[b][1,4]oxazin-2-yl)methyl)acetamide] | **** (The symbol “****” indicates a value greater than 200) | ** (The symbol “**” indicates a value in the range of greater than 90 to 150) | – |

Reference: patent publication US10611740B2, “Aryl dihydro-2H-benzo[b][1,4]oxazine sulfonamide and related compounds for use as agonists of RORγ and the treatment of disease” (Lycera Corporation, priority 2015, dated 2020)
